In patent US20050222266A1, “2-indanylamino derivatives for the therapy of chronic pain” (priority 2002, published 2005):
Structures can show the parent of a compound that is named as a salt.

Assays:
rotarod test, mice = conditions: mouse, in vivo, 15 min before test
Protocol: The side-effect profile of CHF 3381 was then evaluated in the rotarod test both in mice and rats. The day before the execution of the test, mice and rats were trained to maintain their equilibrium on the test apparatus. For mice, training consisted of 3 subsequent 2 min attempts on a rod rotating from 4.5 r.p.m. to 16.5 r.p.m.; for rats, of 3 subsequent 1 min attempts at 8 rpm (Kinnard and Carr, 1957). The morning of the test day, mice and rats were again tested on the rotarod and only animals able to maintain their equilibrium on the rod were retained for the experimental procedure. CHF 3381 was administered p.o. or i.p. to groups of at least 8 animals 15 min (time of peak effect for neurotoxicity) before the execution of the test. All controls received the corresponding vehicle. The number of mice falling during a 2-min test period and the number of rats falling for 3 subsequent 1-min attempts were used for the calculation of the respective doses at which 50% of the animals display neurotoxicity (TD50).

MAO (mono amino oxidase) = assay: MAO inhibiting activity; format: biochemical
[1] = system: acute pain, hot plate 51° C.; assay: hot-plate test, rats; format: in vivo; conditions: 15 min
Protocol: (§1) The effect of CHF 3381 was studied in acute pain with hot-plate test described by Eddy et al (1953). The test was performed on an electrically heated and thermostatically controlled copper surface, set to a temperature of 55 or 51° C. with mice and rats, respectively.
(§2) The animals were confined to the hot plate by a transparent observation chamber and the latency to the response consisting of licking of the hind paws, was measured. A cut-off period of 60 sec was used to avoid tissue damage.
(§3) After i.p. administration, CHF 3381 (30-45-60 and 100 mg/kg in mouse; 30-37-45 and 60 mg/kg in rats), produced a significant and dose-dependent increase in the latency of the hindpaw licking response compared to vehicle-treated animals (Table 6).

[2] = system: cold allodynia produced by CCI; assay: Chronic Constriction Injury (CCI) model, cold allodynia; format: in vivo, rat
Protocol: (§4) The potential analgesic activity of CHF 3381 was evaluated the Chronic Constriction Injury (CCI) model described by Bennett et al (Pain 1988, 33: 87-107). Briefly, the rat left common sciatic nerve was exposed, and proximal to the sciatic trifurcation about 10 mm of nerve was freed of adhering tissue and four ligatures (4.0 silk ) were loosely tied around it with about 1 mm of spacing.
(§5) Two tests of hind limb withdrawal to thermal and cold stimuli were employed in this study. Each test was repeated on both the operated hind paw and the controlateral hind paw.
Cold allodynia was assessed in operated rats, confining them into a clear plastic cylinders placed upon a metal floor chilled by an underlying water bath. A thermistor placed on the floor indicated a surface temperature of about 5° C. In this experimental condition, after the ligation operated rats respond by lifting the affected hind paw elevated above the floor. […] A maximum cut-off time of 20 sec was set to avoid any possible interference with the sensitivity of the animal to respond to subsequent exposure to the cold stimulus. Animals were pre-screened twice with 20 min interval between tests, in order to select for animals displaying clear signs of cold allodynia, i.e. animals with a paw withdrawal latency on the ligated side of <13 sec in both trials.
The animals were then assigned to groups consisting of at least 10 animals per group. CHF 3381 (10-30-60 mg/kg i.p.) or vehicle were administered to animals 7-14 days after ligation and cold allodynia tested 1 and 2 hours after treatment. CHF 3381 also reversed cold allodynia produced by CCI. This effect was again observed to be both time- and dose-dependent with the results generally concurring with those from the thermal hyperalgesia studies. The effect was maximum at 60-120 min after the administration and significant at the two higher tested doses (Table 1).

[3] = system: formalin-induced flinching and licking behavior; assay: formalin model of inflammatory pain in rats; format: in vivo
seizure models = conditions: in vivo; cited from earlier work
[4] = system: thermal hyperalgesia produced by CCI; assay: Chronic Constriction Injury (CCI) model, thermal hyperalgesia (plantar test); format: in vivo; conditions: rat CCI
Protocol: as §4, §5
Rats were tested for thermal hyperalgesia using a commercial available analgesimeter (Plantar test, Ugo Basile, Comerio Italy) by applying heat stimulus (50 W, 8V) directed onto the plantar surface of each hind paw, and the paw withdrawal latency (s) was determined. Four latency measurements were taken for each hind paw and averaged. The apparatus was calibrated to give a paw withdrawal latency of approximately 10 sec. The results were expressed as the difference score (DS) by subtracting the latency of the control side from the latency of the ligated side; if this difference was less than 1.5 sec, the animal was not included in the experimental groups. CHF 3381 (10-30-60 mg/kg intraperitoneally -i.p.-) or vehicle were administered to animals 14-21 days after ligation and hyperalgesia tested 1, 2 and 4 hours after treatment. CHF3381 reversed the thermal hyperalgesia produced by CCI in a dose- and time-dependent manner with a maximum effect at 60 min after the administration.

[5] = system: ion channel associated to NMDA receptors; assay: inhibiting activity on NMDA-associated ion channel; format: biochemical
[6] = system: acute pain, hot plate 55° C.; assay: hot-plate test, mice; format: in vivo; conditions: 15 min
Protocol: as §1, §2, §3

**Q.** With `NC(=O)CNC1Cc2ccccc2C1` [CHF 3381, N-2(indanyl)-glicinamide hydrochloride] as the compound, how does the TD50 at 15 min (rotarod test, mice; ip, i.p. administration) read?
**A.** Its TD50 at 15 min is 96 mg/kg.

**Q.** What about the TD50 at 15 min (rotarod test, mice; oral administration) of the same compound?
**A.** Its TD50 at 15 min is 233 mg/kg.

**Q.** What about the “inhibiting activity towards MAO” value (MAO (mono amino oxidase)) of the same compound?
**A.** The value was “inhibiting activity”.

**Q.** What about the “latency of the hindpaw licking response” value ([1]; 30 mg/kg i.p.) of the same compound?
**A.** The value was 22.44 ± 2.07 s.

**Q.** And the “latency of the hindpaw licking response” value ([1]; 37 mg/kg i.p.)?
**A.** Its value is 26.24 ± 2.22 s.

**Q.** What about the “latency of the hindpaw licking response” value ([1]; 45 mg/kg i.p.) of the same compound?
**A.** The value was 39.59 ± 3.56 s.

**Q.** What about the “latency of the hindpaw licking response” value ([1]; 60 mg/kg i.p.) of the same compound?
**A.** The value was 42.80 ± 3.27 s.

**Q.** What about the “Allodynia paw withdrawal latency” value ([2]; 10 mg/kg i.p., 60 min) of the same compound?
**A.** The value was 7.75 ± 1.36 s.

**Q.** And the “Allodynia paw withdrawal latency” value ([2]; 10 mg/kg i.p., 120 min)?
**A.** Its value is 8.71 ± 1.88 s.

**Q.** What about the “Allodynia paw withdrawal latency” value ([2]; 30 mg/kg i.p., 60 min) of the same compound?
**A.** Its value is 9.96 ± 1.70 s.

**Q.** What about the “Allodynia paw withdrawal latency” value ([2]; 30 mg/kg i.p., 120 min) of the same compound?
**A.** The value was 9.89 ± 1.70 s.

**Q.** What about the “Allodynia paw withdrawal latency” value ([2]; 60 mg/kg i.p., 60 min) of the same compound?
**A.** The value was 11.2 ± 1.33 s.

**Q.** What about the “Allodynia paw withdrawal latency” value ([2]; 60 mg/kg i.p., 120 min) of the same compound?
**A.** The value was 12.68 ± 1.63 s.

**Q.** And the “flinching and licking behavior during the early and late nociceptive phases” value [3]?
**A.** Its value is “clearly suppressed”.

**Q.** What about the “antagonism of 4-aminopyridine- and bicuculline-induced tonic seizures” value (seizure models) of the same compound?
**A.** The value was “weaker antagonist”.

**Q.** And the “behavioral effects and lethality of systematically administered NMDA” value (seizure models)?
**A.** Its value is “antagonize”.

**Q.** What about the “effect against maximal electroshock seizures, picrotoxin- and NMDA-induced hind limb tonic extension” value (seizure models) of the same compound?
**A.** The value was “very effective”.

**Q.** What about the “effect against pentylentetrazole- and picrotoxin-induced clonic seizures” value (seizure models) of the same compound?
**A.** The value was “ineffective”.

**Q.** And the “Hyperalgesia Difference score (DS)” value ([4]; 10 mg/kg i.p.)?
**A.** Its value is 1.41 ± 0.36 s.

**Q.** What about the “Hyperalgesia Difference score (DS)” value ([4]; 30 mg/kg i.p.) of the same compound?
**A.** Its value is 0.83 ± 0.35 s.

**Q.** What about the “Hyperalgesia Difference score (DS)” value ([4]; 60 mg/kg i.p.) of the same compound?
**A.** The value was 0.68 ± 0.14 s.

**Q.** What about the “inhibiting activity towards ion channel associated to NMDA receptors” value [5] of the same compound?
**A.** The value was “inhibiting activity”.

**Q.** What about the “latency of the hindpaw licking response” value ([6]; 30 mg/kg i.p.) of the same compound?
**A.** The value was 19.40 ± 1.37 s.

**Q.** And the “latency of the hindpaw licking response” value ([6]; 45 mg/kg i.p.)?
**A.** The value was 20.16 ± 1.73 s.

**Q.** And the “latency of the hindpaw licking response” value ([6]; 60 mg/kg i.p.)?
**A.** Its value is 26.95 ± 2.45 s.

**Q.** What about the “latency of the hindpaw licking response” value ([6]; 100 mg/kg i.p.) of the same compound?
**A.** Its value is 37.71 ± 3.17 s.
